How the values were obtained:
[1] = Pharmacokinetic evaluation in rats; assay type: in vivo; conditions: Sprague-Dawley, rat, serum, male SD rats, single oral dose 3 mg/kg, in 30% PEG400; for CL/F: read-out: apparent clearance (converted); for AUC(0-inf): read-out: area under the curve (AUC0-∞); for half-life: read-out: half-life (T1/2) (converted)
Protocol: 8 male Sprague-Dawley rats (7-8 weeks old and body weight about 210 g) were divided into two groups, 4 in each group (rat No.: control group was 13-16; experimental group was 9-12), and orally administrated a single dose at 3 mg/kg of either compound: (a) the undeuterated N-(4-chloro-3-(trifluoromethyl)phenyl)-N′-(4-(2-(N-methyl-aminoformyl)-4-pyridyloxy)phenyl)urea (control compound CM4306) or (b) N-(4-chloro-3-(trifluoromethyl)phenyl)-N′-(4-(2-(N-(methyl-d3)-aminoformyl)-4-pyridyloxy)phenyl)urea (Compound CM4307 of the invention) prepared in Example 1. The pharmacokinetics differences were compared.
The rats were fed with the standard feed, given water and chlordiazepoxide. Chlordiazepoxide was stopped at the last night before experiment, and given again two hours after the administration of the compound. The rats were fasted for 16 hours before the test. The compound was dissolved in 30% PEG400. The time for collecting orbital blood was 0.083, 0.25, 0.5, 1, 2, 4, 6, 8 and 24 hours after administrating the compounds.
The rats were anaesthetized briefly by inhaling ether. A 300 μL orbital blood sample was collected into the tubes containing a 30 μl 1% heparin saline solution. The tubes were dried overnight at 60° C. before being used. After the blood samples were sequentially collected, the rats were anaesthetized by ether and sacrificed.
After the blood samples were collected, the tubes were gently reversed at least five times immediately to mix the contents sufficiently, and placed on the ice. The blood samples were centrifuged at 4° C. at 5000 rpm for 5 minutes to separate the serum and red blood cells. 100 μL serum was removed to a clean plastic centrifugal tube by pipettor, and the name of the compound and time point were labeled on the tube. Serum was stored at −80° C. before LC-MS analysis.

[2] = test system: Human Hepatocellular Carcinoma SMMC-7721; assay: Inhibition of tumor growth of SMMC-7721 in nude mice xenograft model; assay type: in vivo, Balb/c nu/nu nude mice; conditions: 100 mg/kg po qd × 2 weeks
Protocol: 70 Balb/c nu/nu nude mice, 6 weeks old, female, were bought from Shanghai Experimental Animal Resource Center (Shanghai B&K Universal Group Limited).
SMMC-7721 cells were commercially available from Shanghai Institutes for Biological Science, CAS (Shanghai, China).
The establishment of tumor nude mice xenograft model: SMMC-7721 cells in logarithmic growth period were cultured. After cell number was counted, the cells were suspended in 1×PBS, and the number of the cell in suspension was adjusted to 1.5×10^7/ml. The tumor cells were inoculated under the skin of right armpit of nude mice with a 1 ml syringe, 3×10^6/0.2 ml/mice. 70 nude mice were inoculated in total.
When the tumor size reached 30-130 mm^3, 58 mice were divided randomly into different groups. […]
Animal body weight and tumor size were tested twice a week during the experiment. Clinical symptoms were recorded every day. At the end of the administration, the tumor size was recorded by taking pictures. […]
The formula for calculating the tumor volume (TV) is: TV=a×b^2/2, wherein a, b independently represent the length and the breadth of the tumor. The formula for calculating the relative tumor volume (RTV) is: RTV=Vt/V0, wherein V0 is the tumor volume at the beginning of the administration, and Vt is the tumor […] when measured. […]

| SMILES | CL/F [1] | AUC(0-inf) [1] | half-life [1] | increase of relative value of tumor inhibition compared with CM4306 (32.2%/19.6%−1) [2] |
| --- | --- | --- | --- | --- |
| CNC(=O)c1cc(Oc2ccc(NC(=O)Nc3ccc(Cl)c(C(F)(F)F)c3)cc2)ccn1 [CM4306, N-(4-chloro-3-(trifluoromethyl)phenyl)-N′-(4-(2-(N-methylaminoformyl)-4-pyridyloxy)phenyl)urea, reference compound] | 6.83 mL/min/kg | 7330 ± 336 ng·h/mL | 8.6 ± 1.4 h | – |
| [2H]C([2H])([2H])NC(=O)c1cc(Oc2ccc(NC(=O)Nc3ccc(Cl)c(C(F)(F)F)c3)cc2)ccn1 [CM4307, N-(4-chloro-3-(trifluoromethyl)phenyl)-N′-(4-(2-(N-(methyl-d3)aminoformyl)-4-pyridyloxy)phenyl)urea] | 4.58 mL/min/kg | 11300 ± 2470 ng·h/mL | 11.3 ± 2.1 h | about 60% |
